Measurements: ChEMBL document CHEMBL4507272 (2021)

How the values were obtained:
[1] = tested on: Tyrosine-protein kinase ABL1 (Homo sapiens), P00519 [F317L]; conditions: Compound concentration 1000.0 nM
[2] = target: Activin receptor type-1B (Homo sapiens) (UniProt P36896); conditions: Compound concentration 1000.0 nM
[3] = target: RAC-beta serine/threonine-protein kinase (Homo sapiens) (UniProt P31751); conditions: Compound concentration 1000.0 nM
[4] = target: Mitogen-activated protein kinase kinase kinase 5 (Homo sapiens) (UniProt Q99683); conditions: Compound concentration 1000.0 nM
[5] = target: Cyclin-dependent kinase 11A (Homo sapiens) (UniProt Q9UQ88); conditions: Compound concentration 1000.0 nM
[6] = target: Cyclin-dependent kinase-like 3 (Homo sapiens) (UniProt Q8IVW4); conditions: Compound concentration 1000.0 nM
[7] = target: Casein kinase I isoform epsilon (Homo sapiens) (UniProt P49674); conditions: Compound concentration 1000.0 nM
[8] = target: Death-associated protein kinase 1 (Homo sapiens) (UniProt P53355); conditions: Compound concentration 1000.0 nM
[9] = target: Mitogen-activated protein kinase kinase kinase 12 (Homo sapiens) (UniProt Q12852); conditions: Compound concentration 1000.0 nM
[10] = tested on: Epidermal growth factor receptor (Homo sapiens), P00533 [UNDEFINED MUTATION]; conditions: Compound concentration 1000.0 nM
[11] = target: Ephrin type-A receptor 1 (Homo sapiens) (UniProt P21709); conditions: Compound concentration 1000.0 nM
[12] = target: Ephrin type-B receptor 2 (Homo sapiens) (UniProt P29323); conditions: Compound concentration 1000.0 nM
[13] = target: Mitogen-activated protein kinase 7 (Homo sapiens) (UniProt Q13164); conditions: Compound concentration 1000.0 nM
[14] = tested on: Receptor-type tyrosine-protein kinase FLT3 (Homo sapiens), P36888 [R834Q]; conditions: Compound concentration 1000.0 nM
[15] = target: G protein-coupled receptor kinase 3 (Homo sapiens) (UniProt P35626); conditions: Compound concentration 1000.0 nM
[16] = target: Mitogen-activated protein kinase 10 (Homo sapiens) (UniProt P53779); conditions: Compound concentration 1000.0 nM
[17] = target: Serine/threonine-protein kinase LATS1 (Homo sapiens) (UniProt O95835); conditions: Compound concentration 1000.0 nM
Chain of Serine/threonine-protein kinase LATS1 (Homo sapiens) (O95835 whole entry): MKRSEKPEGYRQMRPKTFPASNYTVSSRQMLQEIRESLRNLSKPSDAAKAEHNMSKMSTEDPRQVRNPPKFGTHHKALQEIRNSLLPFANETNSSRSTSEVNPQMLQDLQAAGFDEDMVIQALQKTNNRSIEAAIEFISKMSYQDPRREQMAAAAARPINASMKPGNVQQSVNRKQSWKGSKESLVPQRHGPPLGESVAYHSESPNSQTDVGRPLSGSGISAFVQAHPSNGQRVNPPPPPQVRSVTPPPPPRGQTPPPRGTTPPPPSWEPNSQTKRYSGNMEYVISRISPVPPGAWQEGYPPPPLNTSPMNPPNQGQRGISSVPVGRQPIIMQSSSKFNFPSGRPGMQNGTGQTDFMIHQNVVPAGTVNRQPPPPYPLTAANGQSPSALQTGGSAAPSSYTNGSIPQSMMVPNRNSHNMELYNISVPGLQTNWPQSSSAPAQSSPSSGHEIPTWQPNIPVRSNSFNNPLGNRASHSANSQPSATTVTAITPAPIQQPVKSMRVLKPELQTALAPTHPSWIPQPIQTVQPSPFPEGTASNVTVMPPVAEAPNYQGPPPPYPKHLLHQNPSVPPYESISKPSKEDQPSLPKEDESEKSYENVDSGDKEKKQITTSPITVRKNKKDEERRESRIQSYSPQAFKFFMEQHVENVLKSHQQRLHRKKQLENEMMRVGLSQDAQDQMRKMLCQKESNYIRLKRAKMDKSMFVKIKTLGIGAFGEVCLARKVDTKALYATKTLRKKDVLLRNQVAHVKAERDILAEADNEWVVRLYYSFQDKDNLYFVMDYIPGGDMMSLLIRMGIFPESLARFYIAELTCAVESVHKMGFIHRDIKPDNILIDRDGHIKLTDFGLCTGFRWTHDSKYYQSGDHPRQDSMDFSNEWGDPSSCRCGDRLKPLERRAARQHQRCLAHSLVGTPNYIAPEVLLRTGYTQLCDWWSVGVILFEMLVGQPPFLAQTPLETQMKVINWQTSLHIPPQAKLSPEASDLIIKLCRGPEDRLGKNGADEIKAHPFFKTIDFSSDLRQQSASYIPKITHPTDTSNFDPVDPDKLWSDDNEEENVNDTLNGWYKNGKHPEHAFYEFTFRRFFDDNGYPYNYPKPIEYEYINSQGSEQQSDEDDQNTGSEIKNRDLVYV

[18] = target: Mitogen-activated protein kinase kinase kinase kinase 4 (Homo sapiens) (UniProt O95819); conditions: Compound concentration 1000.0 nM
[19] = target: Serine/threonine-protein kinase mTOR (Homo sapiens) (UniProt P42345); conditions: Compound concentration 1000.0 nM
[20] = target: Myosin light chain kinase, smooth muscle (Homo sapiens) (UniProt Q15746); conditions: Compound concentration 1000.0 nM
[21] = target: Serine/threonine-protein kinase Nek6 (Homo sapiens) (UniProt Q9HC98); conditions: Compound concentration 1000.0 nM
[22] = target: Serine/threonine-protein kinase NLK (Homo sapiens) (UniProt Q9UBE8); conditions: Compound concentration 1000.0 nM
[23] = target: Serine/threonine-protein kinase OSR1 (Homo sapiens) (UniProt O95747); conditions: Compound concentration 1000.0 nM
[24] = target: Serine/threonine-protein kinase PAK 5 (Homo sapiens) (UniProt Q9P286); conditions: Compound concentration 1000.0 nM
[25] = target: Platelet-derived growth factor receptor alpha (Homo sapiens) (UniProt P16234); conditions: Compound concentration 1000.0 nM
[26] = target: Platelet-derived growth factor receptor beta (Homo sapiens) (UniProt P09619); conditions: Compound concentration 1000.0 nM
[27] = target: Calcium-dependent protein kinase 1 (Plasmodium falciparum) (UniProt P62344); conditions: Compound concentration 1000.0 nM
[28] = target: Serine/threonine-protein kinase pim-1 (Homo sapiens) (UniProt P11309); conditions: Compound concentration 1000.0 nM
[29] = target: Serine/threonine-protein kinase pim-2 (Homo sapiens) (UniProt Q9P1W9); conditions: Compound concentration 1000.0 nM
[30] = target: Phosphatidylinositol 4-phosphate 5-kinase type-1 alpha (Homo sapiens) (UniProt Q99755); conditions: Compound concentration 1000.0 nM
Chain of Phosphatidylinositol 4-phosphate 5-kinase type-1 alpha (Homo sapiens) (Q99755 whole entry): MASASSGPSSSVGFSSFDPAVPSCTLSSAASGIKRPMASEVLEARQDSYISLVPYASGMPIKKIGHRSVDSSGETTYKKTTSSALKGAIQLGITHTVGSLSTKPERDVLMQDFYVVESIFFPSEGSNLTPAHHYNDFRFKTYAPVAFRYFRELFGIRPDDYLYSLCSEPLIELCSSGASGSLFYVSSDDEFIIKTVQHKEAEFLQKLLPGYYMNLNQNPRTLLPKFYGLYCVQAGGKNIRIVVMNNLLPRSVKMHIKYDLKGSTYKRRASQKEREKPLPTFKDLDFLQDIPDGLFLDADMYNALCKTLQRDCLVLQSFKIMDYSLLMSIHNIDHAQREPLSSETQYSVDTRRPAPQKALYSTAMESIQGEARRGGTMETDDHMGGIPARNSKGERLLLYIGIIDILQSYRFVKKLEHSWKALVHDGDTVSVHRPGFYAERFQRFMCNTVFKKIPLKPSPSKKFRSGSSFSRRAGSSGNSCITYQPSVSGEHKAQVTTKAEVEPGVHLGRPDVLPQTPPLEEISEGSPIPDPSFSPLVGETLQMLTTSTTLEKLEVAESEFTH

[31] = target: Phosphatidylinositol 4-phosphate 5-kinase type-1 gamma (Homo sapiens) (UniProt O60331); conditions: Compound concentration 1000.0 nM
[32] = target: Protein kinase C iota type (Homo sapiens) (UniProt P41743); conditions: Compound concentration 1000.0 nM
Chain of Protein kinase C iota type (Homo sapiens) (P41743 whole entry): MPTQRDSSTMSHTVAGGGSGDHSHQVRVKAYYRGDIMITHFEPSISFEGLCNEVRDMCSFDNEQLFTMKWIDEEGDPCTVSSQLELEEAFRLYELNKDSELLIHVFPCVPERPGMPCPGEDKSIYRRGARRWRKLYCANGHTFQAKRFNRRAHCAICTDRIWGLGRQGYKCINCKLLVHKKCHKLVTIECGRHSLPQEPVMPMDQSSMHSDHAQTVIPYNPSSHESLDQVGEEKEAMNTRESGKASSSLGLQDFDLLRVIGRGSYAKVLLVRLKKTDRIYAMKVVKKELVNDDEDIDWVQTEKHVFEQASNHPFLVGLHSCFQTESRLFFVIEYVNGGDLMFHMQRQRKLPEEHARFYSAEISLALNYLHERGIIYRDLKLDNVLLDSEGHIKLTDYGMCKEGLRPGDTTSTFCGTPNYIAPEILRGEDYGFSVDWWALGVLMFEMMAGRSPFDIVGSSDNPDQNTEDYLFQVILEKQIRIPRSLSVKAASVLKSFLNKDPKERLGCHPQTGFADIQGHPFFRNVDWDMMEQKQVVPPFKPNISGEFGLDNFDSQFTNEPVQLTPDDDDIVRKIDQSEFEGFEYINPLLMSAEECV

[33] = target: cGMP-dependent protein kinase 2 (Homo sapiens) (UniProt Q13237); conditions: Compound concentration 1000.0 nM
[34] = target: Receptor-interacting serine/threonine-protein kinase 2 (Homo sapiens) (UniProt O43353); conditions: Compound concentration 1000.0 nM
[35] = target: STE20-like serine/threonine-protein kinase (Homo sapiens) (UniProt Q9H2G2); conditions: Compound concentration 1000.0 nM
[36] = target: Serine/threonine-protein kinase 16 (Homo sapiens) (UniProt O75716); conditions: Compound concentration 1000.0 nM
[37] = target: Angiopoietin-1 receptor (Homo sapiens) (UniProt Q02763); conditions: Compound concentration 1000.0 nM
[38] = target: Non-receptor tyrosine-protein kinase TNK1 (Homo sapiens) (UniProt Q13470); conditions: Compound concentration 1000.0 nM
[39] = target: Transient receptor potential cation channel subfamily M member 6 (Homo sapiens) (UniProt Q9BX84); conditions: Compound concentration 1000.0 nM
[40] = target: Non-receptor tyrosine-protein kinase TYK2 (Homo sapiens) (UniProt P29597); conditions: Compound concentration 1000.0 nM
[41] = target: Wee1-like protein kinase 2 (Homo sapiens) (UniProt P0C1S8); conditions: Compound concentration 1000.0 nM
[42] = target: Serine/threonine-protein kinase WNK4 (Homo sapiens) (UniProt Q96J92); conditions: Compound concentration 1000.0 nM
Chain of Serine/threonine-protein kinase WNK4 (Homo sapiens) (Q96J92 whole entry): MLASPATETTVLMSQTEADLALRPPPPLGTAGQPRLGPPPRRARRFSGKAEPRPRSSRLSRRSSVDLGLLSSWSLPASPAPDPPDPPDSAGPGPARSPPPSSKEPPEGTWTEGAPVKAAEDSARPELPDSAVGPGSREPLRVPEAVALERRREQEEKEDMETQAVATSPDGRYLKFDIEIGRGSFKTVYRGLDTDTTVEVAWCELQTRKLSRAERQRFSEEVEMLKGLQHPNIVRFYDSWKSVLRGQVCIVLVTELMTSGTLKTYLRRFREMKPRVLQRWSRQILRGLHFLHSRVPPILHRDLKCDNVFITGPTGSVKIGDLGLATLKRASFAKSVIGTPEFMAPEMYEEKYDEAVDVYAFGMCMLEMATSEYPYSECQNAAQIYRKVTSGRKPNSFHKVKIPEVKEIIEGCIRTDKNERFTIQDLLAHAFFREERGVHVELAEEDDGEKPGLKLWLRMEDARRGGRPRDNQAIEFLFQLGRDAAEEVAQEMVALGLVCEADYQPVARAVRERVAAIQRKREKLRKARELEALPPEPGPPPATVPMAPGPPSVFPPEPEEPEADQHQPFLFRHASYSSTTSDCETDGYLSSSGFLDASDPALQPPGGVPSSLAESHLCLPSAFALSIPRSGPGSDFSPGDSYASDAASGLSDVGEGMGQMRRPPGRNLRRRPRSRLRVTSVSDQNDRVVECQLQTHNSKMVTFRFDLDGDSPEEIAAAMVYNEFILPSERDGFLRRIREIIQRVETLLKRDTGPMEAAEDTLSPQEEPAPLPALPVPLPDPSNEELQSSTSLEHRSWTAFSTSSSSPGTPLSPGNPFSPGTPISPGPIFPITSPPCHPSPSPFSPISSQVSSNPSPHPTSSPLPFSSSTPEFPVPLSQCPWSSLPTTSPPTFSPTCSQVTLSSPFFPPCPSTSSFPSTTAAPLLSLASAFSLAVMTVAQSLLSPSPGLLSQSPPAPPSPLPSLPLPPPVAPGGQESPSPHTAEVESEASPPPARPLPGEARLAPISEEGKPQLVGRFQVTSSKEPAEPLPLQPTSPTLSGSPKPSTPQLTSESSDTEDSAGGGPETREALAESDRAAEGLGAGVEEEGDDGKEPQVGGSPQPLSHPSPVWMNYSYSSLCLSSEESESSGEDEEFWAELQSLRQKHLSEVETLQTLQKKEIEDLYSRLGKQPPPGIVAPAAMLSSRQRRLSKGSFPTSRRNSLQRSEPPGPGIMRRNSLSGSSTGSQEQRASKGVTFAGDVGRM

[43] = target: Mitogen-activated protein kinase kinase kinase 20 (Homo sapiens) (UniProt Q9NYL2); conditions: Compound concentration 1000.0 nM
Chain of Mitogen-activated protein kinase kinase kinase 20 (Homo sapiens) (Q9NYL2 2-800 limits assumed): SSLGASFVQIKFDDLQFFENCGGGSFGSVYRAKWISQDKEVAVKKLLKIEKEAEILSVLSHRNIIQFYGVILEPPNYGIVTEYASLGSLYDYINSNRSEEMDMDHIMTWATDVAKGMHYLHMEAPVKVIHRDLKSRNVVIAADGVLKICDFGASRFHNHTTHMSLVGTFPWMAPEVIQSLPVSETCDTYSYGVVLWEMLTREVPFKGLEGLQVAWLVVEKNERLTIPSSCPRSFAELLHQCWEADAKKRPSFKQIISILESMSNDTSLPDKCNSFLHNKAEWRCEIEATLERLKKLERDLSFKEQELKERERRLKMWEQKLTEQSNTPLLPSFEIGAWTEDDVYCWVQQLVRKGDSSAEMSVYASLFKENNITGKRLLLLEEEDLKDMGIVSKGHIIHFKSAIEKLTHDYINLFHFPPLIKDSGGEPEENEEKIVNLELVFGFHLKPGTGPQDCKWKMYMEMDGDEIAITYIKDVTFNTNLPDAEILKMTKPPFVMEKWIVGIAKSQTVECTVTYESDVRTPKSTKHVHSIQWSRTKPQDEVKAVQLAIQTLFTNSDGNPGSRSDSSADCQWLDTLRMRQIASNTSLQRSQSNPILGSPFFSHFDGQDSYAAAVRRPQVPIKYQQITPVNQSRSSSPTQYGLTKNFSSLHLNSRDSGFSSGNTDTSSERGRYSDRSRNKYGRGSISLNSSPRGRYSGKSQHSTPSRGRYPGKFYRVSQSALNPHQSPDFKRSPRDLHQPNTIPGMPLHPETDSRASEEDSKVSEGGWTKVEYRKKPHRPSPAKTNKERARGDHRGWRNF

[44] = target: Beta-2 adrenergic receptor (Homo sapiens) (UniProt P07550); conditions: Compound concentration 10.0 uM
[45] = target: Sigma intracellular receptor 2 (Homo sapiens) (UniProt Q5BJF2); conditions: Compound concentration 10.0 uM
Chain of Sigma intracellular receptor 2 (Homo sapiens) (Q5BJF2 whole entry): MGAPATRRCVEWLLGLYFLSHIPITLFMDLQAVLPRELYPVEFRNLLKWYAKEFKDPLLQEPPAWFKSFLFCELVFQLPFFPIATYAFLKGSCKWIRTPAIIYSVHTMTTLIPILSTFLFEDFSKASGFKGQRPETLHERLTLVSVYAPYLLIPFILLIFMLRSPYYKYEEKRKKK

Chain of Activin receptor type-1B (Homo sapiens) (P36896 whole entry): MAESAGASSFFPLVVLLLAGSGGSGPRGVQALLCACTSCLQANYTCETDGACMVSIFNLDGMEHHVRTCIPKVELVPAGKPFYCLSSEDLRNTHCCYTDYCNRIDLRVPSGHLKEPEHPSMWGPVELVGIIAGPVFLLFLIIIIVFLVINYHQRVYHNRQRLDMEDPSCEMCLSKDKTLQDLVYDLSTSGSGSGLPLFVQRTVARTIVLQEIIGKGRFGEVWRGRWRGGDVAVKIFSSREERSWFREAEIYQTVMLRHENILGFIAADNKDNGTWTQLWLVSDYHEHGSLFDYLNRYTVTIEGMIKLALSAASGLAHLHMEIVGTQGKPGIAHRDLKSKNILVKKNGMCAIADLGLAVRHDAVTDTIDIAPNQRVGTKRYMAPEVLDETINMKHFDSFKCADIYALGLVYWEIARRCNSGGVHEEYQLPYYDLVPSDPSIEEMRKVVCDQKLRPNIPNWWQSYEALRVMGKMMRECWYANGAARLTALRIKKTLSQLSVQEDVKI

CC(=O)C1=C(C)N(c2cccc(C(F)(F)F)c2)C(=O)N[C@@H]1c1ccc(C#N)nc1 [BAY-678]
inactive: residual activity [1] 100% | residual activity [2] 100% | residual activity [3] 100% | residual activity [4] 94.8% | residual activity [5] 95.7% | residual activity [6] 98.5% | residual activity [7] 100% | residual activity [8] 93.8% | residual activity [9] 86.8% | residual activity [10] 92.9% | residual activity [11] 100% | residual activity [12] 100% | residual activity [13] 100% | residual activity [14] 83.6% | residual activity [15] 92.6% | residual activity [16] 100% | residual activity [17] 67.1% | residual activity [18] 99.3% | residual activity [19] 92.5% | residual activity [20] 83.8% | residual activity [21] 100% | residual activity [22] 93% | residual activity [23] 100% | residual activity [24] 96.2% | residual activity [25] 100% | residual activity [26] 94% | residual activity [27] 94.8% | residual activity [28] 100% | residual activity [29] 98.2% | residual activity [30] 100% | residual activity [31] 100% | residual activity [32] 100% | residual activity [33] 100% | residual activity [34] 98.7% | residual activity [35] 98.4% | residual activity [36] 84.6% | residual activity [37] 100% | residual activity [38] 62.1% | residual activity [39] 83.8% | residual activity [40] 94.9% | residual activity [41] 100% | residual activity [42] 100% | residual activity [43] 96.9% | inhibition [44] 24.3% | inhibition [45] 35.9%
